Values belong to the compound of their own block, whether it stands above or below them.
How the values were obtained:
[1] = tested on: SK-N-SH human neuroblastoma cells; assay: Detection of NO produced by cNOS in SK-N-SH cells (fluorescence imaging); format: cell-based; conditions: estradiol-stimulated neuroblastoma cells
Protocol: FIG. 7 illustrates Cu(FL5) detection of NO produced by cNOS. (a) NO detection in SK-N-SH cells by Cu(FL5). Left to right: 25 min incubation of Cu(FL5) (1 μM) and 5, 10, 15, 25 min after co-treatment of Cu(FL5) (1 μM) and 17β-estradiol (100 nM). Images were taken with a Nikon Eclipse TS100 microscope after removing the DMEM media and washing the cells with PBS. Top: fluorescence images; bottom: phase contrast images. (b) Fluorescence intensity (F(t)/FCu(FL5)) from a was plotted against incubation time. (c) NO production with or without of L-NNA. Right: NO detection in cells after 10 min co-incubation of Cu(FL5) (1 μM) and 17β-estradiol (100 nM). Left: NO detection in cells pre-treated with L-NNA for 1 h before addition of Cu(FL5) and 17β-estradiol.
We investigated the ability of Cu(FL5) to detect NO produced in SK-N-SH human neuroblastoma cells under physiological conditions, since constitutive NO synthase (“cNOS”) in this cell line can be activated by estrogen to produce NO. Estrogen administration leads to an increase in the cytosolic Ca(II) concentration that alters the structure of calmodulin, which in turn activates cNOS. The NO-dependent fluorescence response, monitored after simultaneous administration of 17β-estradiol (100 nM) and Cu(FL5) (1 μM) to the cells, was completed within 5 min with a 4.0±0.6-fold increase in fluorescence (FIGS. 5a and b). […] As another control, HeLa cells were co-treated with 17β-estradiol (100 nM) and Cu(FL5) (1 μM).
Raw 264.7, SK-N-SH, and HeLa cells were purchased from the American Type Culture Collection (ATCC). All three cell lines were maintained in Dulbecco's modified Eagles' media (DMEM) (GibcoBRL) containing 10% (v/v) heat-inactivated fetal bovine serum (FBS) (HyClone), 1 mM sodium pyruvate (Sigma), 100 units/ml penicillin, 100 μg/ml streptomycin (Invitrogen), and 0.1 mM nonessential amino acid solution for minimal essential medium (Sigma). All cells were grown at 37° C. in a humidified atmosphere of 10% CO2. A nitrite assay was performed with Griess reagents (Promega) on Raw 264.7 cells grown in DMEM free of phenol red. Calcium sensor fluo-4 AM was purchased from Invitrogen. MTT [3-(4,5-dimethylthiazol-2-yl)-2,5-diphenyltetrazolium bromide] (Sigma-Aldrich) assay was described in Supplementary information. The expression of iNOS in Raw 264.7 cells was analyzed by Western blot on the extracts of cells stimulated by LPS and INF-γ. The protein was silenced by short hairpin RNA-induced RNAi and the resulting cell lines were used in fluorescence imaging by Cu(FL5).

[2] = Stability of nitrosated ligand at pH 7.0; format: physicochemical
Source text: High resolution MS of FL5-^14NO and FL-^15NO were also obtained, showing m/z=600.0729 for FL5-^14NO and 601.0736 for FL5-^15NO, corresponding to [FL5+NO−H+Cl]^− (calcd. m/z 600.0729 and 601.0700).

Quantum yield = format: physicochemical
Source text: Quantum yield may be obtained by comparison of the integrated area of the corrected emission spectrum of the sample with that of a reference solution. A preferred reference solution is a solution of fluorescein in 0.1 N NaOH, quantum efficiency 0.95. The concentration of the reference is adjusted to match the absorbance of the test sample. The quantum yields may be calculated using the following equation.
Upon addition of excess NO, a 499 nm peak in the UV-vis spectrum of Cu(FL5) in pH 7.0 buffered solution red-shifted back to the λmax characteristic of FL5 or the synthetic FL5−NO compound (504 nm), which differs from the band formed in the reaction of FL5 with 1 equivalent of Cu(I) added as [Cu(CH3CN)4](BF4) (506 nm). […] In addition, the spectrum of the NO reaction solution closely resembled that of the monoanionic fluorescein formed by lowering the pH from 7.0 to 5.0. […] These values are in the range previously reported for N-nitrosamines. The presence of two separate chemical shifts might arise from different isomers in solution, the Δδ of 2.29 being similar to that of previously reported of N-nitrosamines. […] Lastly, FL5−NO is brighter than FL5 or Cu(FL5), the respective quantum yields being ΦFL-NO=0.58±0.02 and ΦFL=0.077±0.002.

[3] = Fluorescence response to NO in buffered aqueous solution
Protocol: FIG. 5 depicts the fluorescence response of Cu(FL5) to NO. Fluorescence emission spectra (λex=503 nm) of a deoxygenated 1 μM solution of Cu(FL5) in buffered solution (50 mM PIPES, pH 7.0, 100 mM KCl) before (dashed line), immediately, 1, 2 and 5 min after (solid lines) admission of 1300 equiv of NO (g) at 37° C.
The fluorescence of a 1 μM FL5 solution was diminished by 18±3% upon introduction of an equimolar quantity of CuCl2 at 37° C. Addition of excess NO to a buffered aqueous Cu(FL5) solution led to an immediate 11.2±1.5-fold increase in fluorescence (FIG. 5). […] The lower detection limit for NO is 5 nM.
A commercially available NO probe, DAF-2 (o-diaminofluorescein), was used for comparison with Cu(FL5). The fluorescence of DAF-2 is unchanged in the presence of NO and the absence of O2 over a period of 1 h.
As depicted in FIG. 4, NO detection by Cu(FL5) occurs, formally, by nitric oxide-induced reduction of Cu(II) to Cu(I), forming NO^+, which nitrosates the ligand with concomitant dissociation from copper and fluorescence turn-on. The mechanism of turn-on emission of Cu(FL5) by NO was investigated by EPR, UV-vis, NMR and fluorescence spectroscopy and by liquid chromatography-mass spectrometry (LC-MS, low resolution MS).

Compound: CC(=O)Oc1ccc2c(c1)Oc1cc(OC(C)=O)ccc1C21OC(=O)c2cc(N)c(N)cc21 [DAF-2 DA, o-diaminofluorescein diacetate, reference compound]
- fluorescence increase of treated cells 30 min after activation of cNOS [1]: only a slight fluorescence increase

- stability [2]: stable for several days
- quantum yield Φ (Quantum yield): 0.58±0.02
Compound: Cc1ccc2cccc(N(Cc3c(O)ccc4c(-c5ccccc5C(=O)O)c5cc(Cl)c(=O)cc-5oc34)N=O)c2n1 [FL5−NO, 2-{2-chloro-6-hydroxy-5-[((2-methylquinolin-8-yl)(nitroso)amino)-methyl]-3-oxo-3H-xanthen-9-yl}-benzoic acid]

Compound: o-diaminofluorescein [DAF-2, reference compound]
- fluorescence in the presence of NO when O2 is present [3]: turn-on fluorescence
- fluorescence in the presence of NO and the absence of O2 ([3]; over a period of 1 h): unchanged
